Measured values from BindingDB's records for doi:10.1021/jm00164a028 (Wyeth Research, 1990).

Molecular target: Thromboxane-A synthase (Oryctolagus cuniculus)
Assay: Inhibition of Thromboxane A2 synthetase in rabbit platelets

Row | SMILES | IC50
1 | CCOC(=O)C1=C(Cn2ccnc2)N=C(C)C(C(=O)OC)C1c1cccc(C(F)(F)F)c1Cl (stereo not drawn) | 16 µM
2 | CCOC(=O)C1=C(CCn2ccnc2)N=C(C)C(C(=O)OCC)C1c1cccc([N+](=O)[O-])c1 (stereo not drawn) | 11 µM
3 | CCOC(=O)C1=C(Cn2ccnc2)N=C(C)C(C(=O)OC)C1c1cccc([N+](=O)[O-])c1 (stereo not drawn) | 5 µM
4 | CCOC(=O)C1=C(COCCn2ccnc2)N=C(C)C(C(=O)OC)C1c1cccc([N+](=O)[O-])c1 (stereo not drawn) | 115 µM
5 | CCOC(=O)C1=C(Cn2ccnc2)N=C(C)C(C(=O)OCC)C1c1cccc([N+](=O)[O-])c1 (stereo not drawn) | 1.4 µM
6 | CCOC(=O)C1=C(Cn2ccnc2)N=C(C)C(C(=O)OC(C)(C)C)C1c1cccc([N+](=O)[O-])c1 (stereo not drawn) | 23 µM

Continued by falling IC50, values first:

Row | IC50 | SMILES
7 | 3.2 µM | CCOC(=O)C1=C(Cn2ccnc2)N=C(C)C(C(=O)OC)C1c1ccccc1[N+](=O)[O-] (stereo not drawn)
8 | 2 µM | CCOC(=O)C1=C(Cn2ccnc2)N=C(C)C(C(=O)OC(C)C)C1c1cccc([N+](=O)[O-])c1 (stereo not drawn)
